Measurements: patent publication US6545131B1, “Tissue specific prodrug” (priority 1997, dated 2003)
Starred links: 1 amine or outer side, 2 acyl side, 3 side chain; linkers in the order of their positions; H or OH if unused. Residues, ends and D or L forms follow the SMILES beside them. *: point of attachment. Mu = morpholinocarbonyl, O=C(N1CCOCC1)*; AMC = Cc1cc(=O)oc2cc(N*)ccc12; Morpholide = C1CN(*)CCO1; CO = O=C([*:1])[*:2]

Key:
[1] = system: TSU-Pr1 cells; experiment: Clonogenic survival of TSU-Pr1 cells after 72 hours exposure to TG analogs; type: cell-based, human; details: TSU-Pr1, 72 hours exposure; mean (n=5) ± standard error; read-out: LC50 (concentration needed to kill 50% of clonogenic cells)
Protocol: The primary amine-containing thapsigargin analogs of the invention have non-specific toxicity toward cells. This toxicity is measured as the concentration of analog needed to kill 50% of clonogenic cells (LC50). The LC50 of the analogs of the invention is desirably at most 20 μM, preferably at most 5 μM, and more preferably at most 500 nM of analog.
Percentage clonogenic survival of TSU-Pr1 (2×10^5 cells) following 72 hours of exposure to varying concentrations of TG analogs was performed as described in Martikainen et al. Cancer Res., 51, 4693-4700 (1991).
The IC50 results are mean (n=3)±standard error. The LC50 results are mean (n=5)±standard error. The entry “ND” stands for “not determined”. Clonogenic survival not determined above 10 μM for dBTG. Analogs with −boc have a t-butoxycarbonyl (boc) protected amino group.
The androgen responsive PSA-producing LNCaP and androgen independent PSA non-producing TSU-Pr1 are human prostate cancer lines were obtained from ATCC (Rockville, Md.) and maintained by serial passage in RPMI 1640 media containing 10% fetal calf serum with 100 units/ml penicillin G, and 100 units/ml streptomycin sulfate (antibiotics from M.A. Bioproducts, Walkerville, Md.) as standard media in 5% CO2/95% air at 37° C. The origins and characteristics of the LNCaP and TSU-Pr1 cell lines are described in Horoszewicz, et al., Cancer Res., 43:1809-1818, (1980)and Iizumi, et al., J. Urol, 137: 1304-1306, (1987).

[2] = target: T1, PSA (prostate specific antigen) (Homo sapiens, UniProt P07288); experiment: Cleavage of AMC-labelled peptide substrates by purified PSA (fluorescence of released AMC; Lineweaver-Burke kinetics); type: biochemical; details: 0.2 mM substrate
T1 construct: PSA was purified from human seminal plasma; from tissue; host or cells: human seminal plasma
Protocol: (§1) The peptides discussed herein were custom synthesized by Enzyme Systems Products (Dublin, Calif.) and, after HPLC separation and purification to >95%, the molecular weights were confirmed by mass spectroscopy. All peptides had morpholinocarbonyl protecting the amino terminus and 7-amino-4-methylcoumarin (AMC) attached via an amide bond to the carboxyl group of the carboxy-terminal amino acid. Peptides were first dissolved in distilled water (5 mM) and then diluted into PSA assay buffer (50 mM Tris/0.1M NaCl pH 7.8). The glutamine-AMC peptide had the amino terminus and side chain amine unprotected and was obtained from Bachem (Torrance, Calif.).
(§2) PSA was purified from human seminal plasma as described in Christensson, et al. Eur. J. Biochem. 194:755-765, (1990). Plasmin, urokinase, tissue plasminogen activator (TPA), human plasma and porcine pancreatic kallikrein and a 1-antichymotrypsin were obtained from Calbiochem (San Diego, Calif.). All other proteases were obtained from Sigma Chemical Co. (St. Louis, Mo.). Mouse serum was obtained from East Acres Biologicals (South Bridge, Mass.). Goat and calf sera were obtained from Gibco BRL (Grand Island, N.Y.). Rat serum was obtained in-house from sacrificed animals. Human serum was obtained from volunteers.
(§3) Cleavage was studied by measuring fluorescence change secondary to AMC release. Fluorescence detection was carried out with a Fluoroskan II 96 well fluorometric plate reader (ICN Biomedicals, Costa Mesa, Calif.), with excitation wavelength 355 nm and emission wavelength 460 nm. Data were collected and analyzed using Deltasoft III software (Biometallics, Princeton, N.J.). All reactions were performed at room temperature by the addition of substrate and proteases into PSA buffer, described below, in a final volume of 200 μL. The results were determined from the initial linear increase of fluorescence and were expressed as the picomoles of AMC released per minute based upon comparison to a standard curve of the fluorescence of known amounts of AMC (i.e., fluorescence was linear form 20 to 300 picomoles of AMC). The data were analyzed by Lineweaver-Burke reciprocal plots to determine the Michaelis-Menten constant (i.e., Km) expressed as the amount of substrate needed to saturate half of the enzyme and the catalytic rate constant (i.e., kcat) expressed as the amount of substrate converted to product per time per amount of enzyme.
(§4) Each assay contains 200 picomoles of the particular protease and 0.2 mM concentration of the particular substrate (i.e., 40,000 picomoles/200 μL of assay volume). The amino acid sequences expressed in one letter amino acid code represent the following amino acid sequences in the three letter amino acid code: EHSSKLQ (Glu-His-Ser-Ser-Lys-Leu-Gln; SEQ ID NO:10), QNKISYQ (Gln-Asn-Lys-Ile-Ser-Tyr-Gln; SEQ ID NO:11), ENKISYQ (Glu-Asn-Lys-Ile-Ser-Tyr-Gln; SEQ ID NO:12), and ATKSKQH (Ala-Thr-Lys-Ser-Lys-Gln-His; SEQ ID NO:13). Determinations listed in the table were carried out with substrates at 0.2 mM concentration in the PSA assay buffer (50 mM Tris/0.1M NaCl pH 7.8). The entry “UD” stands for “undetectable” and means that at most, 0.1 pmole of substrate cleavage per minute per 200 pmole protease took place. Asterisks represent experiments not performed. Abbreviations are as follows: PSA (prostate specific antigen), Chymo (chymotrypsin), Urokin (urokinase), TPA (tissue plasminogen activator), Thromb (thrombin), Kallik (human kallikrein, hK1).
The data in Table 2 are the results of kinetic experiments with the peptide substrates used in Example 1. Experimental details are found in Example 1.
The amino acid sequences expressed in one letter amino acid code represent the following amino acid sequences in the three letter amino acid code: EHSSKLQ (Glu-His-Ser-Ser-Lys-Leu-Gln; SEQ ID NO:10), HSSKLQ (His-Ser-Ser-Lys-Leu-Gln; SEQ ID NO:7), SKLQ (Ser-Lys-Leu-Gln; SEQ ID NO:1), and ATKSKQH (Ala-Thr-Lys-Ser-Lys-Gln-His; SEQ ID NO:13). […]

[3] = system: Elastase; experiment: Peptide-AMC cleavage by purified extracellular protease; type: biochemical; details: 0.2 mM substrate, PSA assay buffer pH 7.8
Protocol: as §1, §2, §3, §4

[4] = target: T2, Plasmin (Homo sapiens, UniProt P00747); experiment: as above; type: biochemical; details: 0.2 mM substrate, PSA assay buffer pH 7.8
T2 construct: purchased Calbiochem
Protocol: as §1, §2, §3, §4

[5] = system: Trypsin; experiment: as above; type: biochemical; details: 0.2 mM substrate, PSA assay buffer pH 7.8
Protocol: as §1, §2, §3, §4

[6] = target: T3, chymotrypsin (Bos taurus, UniProt P00766); experiment: as above; type: biochemical; details: 0.2 mM substrate, PSA assay buffer pH 7.8
T3 construct: purchased Sigma Chemical Co
Protocol: as §1, §2, §3, §4

[7] = target: T4, thrombin (Homo sapiens, UniProt P00734); experiment: as above; type: biochemical; details: 0.2 mM substrate, PSA assay buffer pH 7.8
T4 construct: purchased Sigma Chemical Co
Protocol: as §1, §2, §3, §4

[8] = target: T5, tissue plasminogen activator (TPA) (Homo sapiens, UniProt P00750); experiment: as above; type: biochemical; details: 0.2 mM substrate, PSA assay buffer pH 7.8
T5 construct: purchased Calbiochem
Protocol: as §1, §2, §3, §4

[9] = Stability of PSA substrates in serum (AMC release); type: in vitro ADME; details: 0.2 mM substrate
From the text: as §2, §3
Because the prodrug can be given systemically via the blood, it is useful to determine the stability of the substrates in sera from a variety of species. The substrates and experimental details are found as described in Example 1.
The amino acid sequences expressed in one letter amino acid code represent the following amino acid sequences in the three letter amino acid code: EHSSKLQ (Glu-His-Ser-Ser-Lys-Leu-Gln; SEQ ID NO:10), QNKISYQ (Gln-Asn-Lys-Ile-Ser-Tyr-Gln; SEQ ID NO:11), ENKISYQ (Glu-Asn-Lys-Ile-Ser-Tyr-Gln; SEQ ID NO:12) and ATKSKQH (Ala-Thr-Lys-Ser-Lys-Gln-His; SEQ ID NO:13). Determinations listed in the table were carried out with substrates at 0.2 mM concentration in the PSA assay buffer (50 mM Tris/0.1M NaCl pH 7.8). AMC is 7-amino-4-methylcoumarin. The human serum used was 100% for each assay. The entry “UD” stands for “undetectable”, and means that not more than 0.01 picomole of substrate per minute was cleaved.

[10] = target: T6, Cathepsin B (Homo sapiens, UniProt P07858); experiment: PSA substrate cleavage by purified intracellular protease; type: biochemical; details: 0.2 mM substrate, pH 7.8; SKLQ, KLQ, LQ in 1.4% acetonitrile/buffer, Q-AMC in 0.2% formic acid/buffer
T6 construct: purchased Sigma Chemical Co
Protocol: as §3
(§5) A family of peptide substrates based upon the EHSSKLQ (SEQ ID NO:10) sequence was assayed for activity for the intracellular proteases, and the results given in Table 4.
(§6) The amino acid sequences expressed in one letter amino acid code represent the following amino acid sequences in the three letter amino acid code: EHSSKLQ (Glu-His-Ser-Ser-Lys-Leu-Gln; SEQ ID NO:10), The shorter sequences are formed by deleting amino acids from the amino terminal side of the sequence. Determinations listed in the table were carried out with substrates at 0.2 mM concentration in the PSA assay buffer (50 mM Tris/0.1M NaCl pH 7.8), except SKLQ (SEQ ID NO:1), KLQ and LQ, which were carried out in 1.4% acetonitrile/buffer and Q-AMC which was carried out in 0.2% formic acid/buffer, at pH 7.8. The entry “UD” stands for “undetectable” and means that at most, 0.1 pmole of substrate cleavage per minute per 200 pmole protease took place. Asterisks represent experiments not performed. Abbreviations are as follows: PSA (prostate specific antigen), Cath B, C, D (Cathepsins, B, C, D), Esterase (porcine liver esterase).

[11] = target: T7, Cathepsin C (Homo sapiens, UniProt P53634); experiment: as above; type: biochemical; details: 0.2 mM substrate, pH 7.8; SKLQ, KLQ, LQ in 1.4% acetonitrile/buffer, Q-AMC in 0.2% formic acid/buffer
T7 construct: purchased Sigma Chemical Co
Protocol: as §3, §5, §6

[12] = system: porcine liver esterase; experiment: as above; type: biochemical; details: 0.2 mM substrate, pH 7.8; SKLQ, KLQ, LQ in 1.4% acetonitrile/buffer, Q-AMC in 0.2% formic acid/buffer
Protocol: as §3, §5, §6

T1 sequence (P07288 25-261): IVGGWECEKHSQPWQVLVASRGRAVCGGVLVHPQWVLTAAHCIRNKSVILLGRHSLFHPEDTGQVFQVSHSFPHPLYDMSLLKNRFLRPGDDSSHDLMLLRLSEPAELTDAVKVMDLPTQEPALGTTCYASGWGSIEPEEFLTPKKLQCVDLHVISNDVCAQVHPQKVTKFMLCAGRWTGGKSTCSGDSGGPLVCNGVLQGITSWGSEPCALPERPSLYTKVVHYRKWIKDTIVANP
T7 sequence (P53634 25-463): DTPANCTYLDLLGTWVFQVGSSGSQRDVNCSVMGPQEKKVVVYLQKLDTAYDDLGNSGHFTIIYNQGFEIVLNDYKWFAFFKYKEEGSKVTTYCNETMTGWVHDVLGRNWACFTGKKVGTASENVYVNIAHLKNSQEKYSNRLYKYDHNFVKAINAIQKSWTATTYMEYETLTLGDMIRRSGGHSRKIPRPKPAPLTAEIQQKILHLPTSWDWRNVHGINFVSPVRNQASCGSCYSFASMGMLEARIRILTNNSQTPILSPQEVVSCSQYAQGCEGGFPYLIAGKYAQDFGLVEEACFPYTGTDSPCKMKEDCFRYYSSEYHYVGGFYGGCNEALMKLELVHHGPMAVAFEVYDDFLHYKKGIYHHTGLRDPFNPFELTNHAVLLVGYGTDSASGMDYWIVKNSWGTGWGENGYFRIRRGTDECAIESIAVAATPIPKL
T5 sequence (P00750 36-562, species assumed): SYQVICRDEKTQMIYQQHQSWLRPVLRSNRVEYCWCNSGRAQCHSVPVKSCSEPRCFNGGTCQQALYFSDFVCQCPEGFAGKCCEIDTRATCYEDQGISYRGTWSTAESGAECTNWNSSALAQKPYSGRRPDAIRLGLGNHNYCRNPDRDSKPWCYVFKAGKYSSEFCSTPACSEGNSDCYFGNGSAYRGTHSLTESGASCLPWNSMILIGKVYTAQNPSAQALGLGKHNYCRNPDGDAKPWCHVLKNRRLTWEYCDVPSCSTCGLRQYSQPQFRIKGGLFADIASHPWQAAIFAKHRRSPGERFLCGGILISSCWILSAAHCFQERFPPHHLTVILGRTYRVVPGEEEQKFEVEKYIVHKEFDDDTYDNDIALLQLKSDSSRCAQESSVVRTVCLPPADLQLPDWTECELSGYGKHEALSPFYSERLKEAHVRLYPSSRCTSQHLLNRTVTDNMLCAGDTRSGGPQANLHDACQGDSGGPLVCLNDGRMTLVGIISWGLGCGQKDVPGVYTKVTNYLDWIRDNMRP
T2 sequence (P00747 581-810 limits assumed, species assumed): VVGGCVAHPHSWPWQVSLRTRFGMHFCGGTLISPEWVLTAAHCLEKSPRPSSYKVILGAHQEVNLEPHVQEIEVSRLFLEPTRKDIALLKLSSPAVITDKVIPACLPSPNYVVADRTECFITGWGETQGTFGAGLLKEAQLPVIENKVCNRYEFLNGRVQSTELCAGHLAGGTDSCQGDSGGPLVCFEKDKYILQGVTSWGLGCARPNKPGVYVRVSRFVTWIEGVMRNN
T2 sequence (P00747 97-580 partner limits assumed, species assumed): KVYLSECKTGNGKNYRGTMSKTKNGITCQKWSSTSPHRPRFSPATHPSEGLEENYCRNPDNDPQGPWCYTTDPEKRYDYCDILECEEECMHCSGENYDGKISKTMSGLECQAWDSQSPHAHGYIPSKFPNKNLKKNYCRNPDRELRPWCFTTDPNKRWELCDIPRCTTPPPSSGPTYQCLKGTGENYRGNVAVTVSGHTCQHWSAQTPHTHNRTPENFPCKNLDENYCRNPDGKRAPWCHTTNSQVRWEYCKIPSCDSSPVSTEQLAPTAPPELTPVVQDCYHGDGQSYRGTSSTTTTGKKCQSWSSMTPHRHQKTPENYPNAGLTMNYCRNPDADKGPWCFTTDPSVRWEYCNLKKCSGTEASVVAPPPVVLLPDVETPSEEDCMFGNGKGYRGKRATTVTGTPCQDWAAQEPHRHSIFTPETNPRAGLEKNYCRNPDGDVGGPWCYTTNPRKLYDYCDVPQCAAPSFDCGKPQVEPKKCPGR

8-O-(2-[4-t-butoxycarbonylaminophenyl]acetyl)-8-O-debutanoylthapsigargin [AAT-boc]
CC50 [1]: > 10 µM

C/C=C(/C)C(=O)OC1C(C)=C2C(C1OC(=O)CCCCCCC)C(C)(OC(C)=O)CC(OC(=O)Cc1ccc(N)cc1)C1(O)C2OC(=O)C1(C)O (centres unmarked) [AAT, 8-O-(2-[4-aminophenyl]acetyl)-8-O-debutanoylthapsigargin]
CC50 [1]: > 10 µM

C/C=C(/C)C(=O)OC1C(C)=C2C(C1OC(=O)CCCCCCC)C(C)(OC(C)=O)CC(OC(=O)c1ccc(NC(=O)OC(C)(C)C)cc1)C1(O)C2OC(=O)C1(C)O (centres unmarked) [ABT-boc, 8-O-(4-t-butoxycarbonylaminobenzoyl)-8-O-debutanoylthapsigargin]
CC50 [1]: 12 ± 0.3 µM

CC[C@H](C)[C@H](NC(=O)[C@H](CCCCN)NC(=O)[C@H](CC(N)=O)NC(=O)[C@H](CCC(N)=O)NC(=O)N1CCOCC1)C(=O)N[C@@H](CO)C(=O)N[C@@H](Cc1ccc(O)cc1)C(=O)N[C@@H](CCC(N)=O)C(=O)Nc1ccc2c(C)cc(=O)oc2c1 [QNKISYQ, Gln-Asn-Lys-Ile-Ser-Tyr-Gln] ({Morpholide-CO}-QNKISYQ-{AMC})
Picomoles of substrate cleaved/minute/200 pmoles of indicated protease: PSA ([2]; PSA assay buffer pH 7.8, room temperature): 16.8 picomoles/minute/200 pmoles pr | Picomoles of substrate cleaved/minute/200 pmoles of indicated protease: Elastase [3]: 9.0 picomoles/minute/200 pmoles pr | Picomoles of substrate cleaved/minute/200 pmoles of indicated protease: Plasmin [4]: UD (at most, 0.1 pmole of substrate cleavage per minute per 200 pmole protease took place) | Picomoles of substrate cleaved/minute/200 pmoles of indicated protease: Trypsin [5]: UD (at most, 0.1 pmole of substrate cleavage per minute per 200 pmole protease took place) | Picomoles of substrate cleaved/minute/200 pmoles of indicated protease: Chymo [6]: 9.0 picomoles/minute/200 pmoles pr | Picomoles of substrate cleaved/minute/200 pmoles of indicated protease: Thromb [7]: 0.4 picomoles/minute/200 pmoles pr | Picomoles of substrate cleaved/minute/200 pmoles of indicated protease: TPA [8]: 0.4 picomoles/minute/200 pmoles pr | picomles AMC released/minute: Calf [9]: UD (not more than 0.01 picomole of substrate per minute was cleaved) | picomles AMC released/minute: Fetal Calf [9]: 11.60 picomoles/minute | picomles AMC released/minute: Goat [9]: 5.54 picomoles/minute | picomles AMC released/minute: Mouse [9]: 1.67 picomoles/minute | picomles AMC released/minute: Rat [9]: 10.7 picomoles/minute | picomles AMC released/minute: Human ([9]; human serum 100%): 1.54 picomoles/minute

KLQ: shorter sequence formed by deleting amino acids from the amino terminal side of EHSSKLQ; AMC substrate (Mu-Lys-Leu-Gln-{AMC}; also: AMC substrate)
picomoles of peptide cleaved/min/200 picomoles protease: PSA ([2]; pH 7.8, SKLQ, KLQ, LQ in 1.4% acetonitrile/buffer, Q-AMC in 0.2% formic acid/buffer): 0.4 picomoles/min/200 picomoles pr | picomoles of peptide cleaved/min/200 picomoles protease: Cath B [10]: 87.0 picomoles/min/200 picomoles pr | picomoles of peptide cleaved/min/200 picomoles protease: Cath C [11]: UD (at most, 0.1 pmole of substrate cleavage per minute per 200 pmole protease took place) | picomoles of peptide cleaved/min/200 picomoles protease: Esterase [12]: UD (at most, 0.1 pmole of substrate cleavage per minute per 200 pmole protease took place)
